Assay results taken from US8853215B2, “Derivatives of N-acyl-N′-phenylpiperazine useful (inter alia) for the prophylaxis or treatment of diabetes” (Takeda Pharmaceutical Company Limited, priority 2009, dated 2014).

Legend:
human RBP4 = human RBP4 (Homo sapiens (Human), UniProt P02753); assay: Binding assay by Retinol-RBP4-TTR ELISA
Summary of the method: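 Biotinylated human TTR was captured on streptavidin plates, then His-tagged human RBP4 was added with compound premixed with 50 nM retinol (8 doses). Binding ran 2 h at room temperature in 50 mM Tris-HCl, 150 mM NaCl, 0.005% Tween 20, 1 mM DTT, 0.1% BSA, read by luminescence. Inhibition was scaled between retinol+DMSO and retinol-free controls, and IC50 fitted.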

RBP4 = RBP4 (Rattus norvegicus (Rat), UniProt P04916); assay: Single administration test in Wistar fatty rats, plasma RBP4 by ELISA; assay type: in vivo; details: male Wistar fatty rats, 10 mg/kg oral single dose, mean±SD; for RBP4 (% of initial/Control) 0 hr: 0 hr (just before the administration); for RBP4 (% of initial/Control) 4 hr: 4 hr after administration; for RBP4 (% of initial/Control) 7 hr: 7 hr after administration; for RBP4 (% of initial/Control) 24 hr: 24 hr after administration
Experimental: The action of the compounds of the present invention to lower plasma RBP4 level was evaluated using the animal model shown below.
Male Wistar fatty rats (fa/fa) were bred in Takeda Pharmaceutical Company Limited and maintained on normal diet (CE2, CLAE Japan, Inc.) and tap water. Animals were housed in a temperature-controlled room adjusted to a 12-hour light/12-hour dark cycle beginning at 7:00 and 19:00, respectively. All procedures were conducted according to the experimental animal care use committee of Takeda Pharmaceutical Company.
Male 13-43-week-old Wistar fatty rats were divided into groups randomly. Compounds were suspended in 0.5% (w/v) methylcellulose in water and given orally to Wistar fatty rats at a dose of 10 mg/10 mL/kg of body weight (3-5 rats per group). Blood samples were obtained from tail vein with sodium heparin as an anticoagulant at time 0 hr (just before the administration), 4 hr, 7 hr, and 24 hr after the administration, followed by plasma separation by centrifugation. Plasma RBP4 levels were measured by enzyme-linked immunosorbent assay described in the following section.
Plasma samples were analyzed in duplicate for RBP4 by an enzyme-linked immunosorbent assay. Mouse recombinant RBP4 (Takeda Pharmaceutical Company Limited) was used as standards, and the assay range was 0.313-20 ng/ml. Samples were diluted 10,000-fold with phosphate-buffered saline (PBS) (Sigma) containing 10% (w/v) BlockAce (Dainippon Sumitomo Pharma Co., Ltd). Rabbit anti-RBP4 polyclonal antibody (100 μL/well of 50 μg/mL, Hokudo Co, Ltd) was incubated in a 96-well plate (Nalge Nunc International K.K.) for overnight at 4° C. Subsequently, the plates were washed with PBS-T (Wako Pure Chemical Industries, Ltd.) and blocked with PBS containing 25% BlockAce for 1 hr at room temperature. After another washing with PBS-T, samples and standards were applied to the well, and the plates were incubated for 2 hr at room temperature. After a washing the wells, peroxidase-labeled (Dojindo Laboratories) anti-RBP4 (100 μL/well) was added to the wells, and then the plates were incubated for 1 hr at room temperature. After a final washing with PBS-T, substrate solution 3,3,5,5-tetramethylbenzidine (Sigma) was added to the wells, and the plates were placed in the dark for 5-20 min at room temperature. The reaction was stopped with 0.5 M sulphuric acid and the optical density was measured with a spectrophotometer at 450 nm. The changes in plasma RBP4 levels were expressed as % of initial/Control. All data are presented as mean±SD.

CD (SD) rats = assay: Repeated drug administration test in CD (SD) rats, retinol in plasma and retina by HPLC; assay type: in vivo
Experimental: The effect of the compound on retinol level in retina was evaluated using the animal model shown below.
Male CD (SD) rats were purchased from Charles River (Japan) and maintained on normal diet (CR-LPF) (Oriental Yeast Co., Ltd.) and tap water. Animals were housed in a temperature-controlled room adjusted to a 12-hour light/12-hour dark cycle beginning at 7:00 and 19:00, respectively. All procedures were conducted according to the experimental animal care use committee of Takeda Pharmaceutical Company.
A compound was suspended in 0.5% (w/v) methylcellulose in water and given orally to rats at a volume of 10 mL/kg of body weight. Drug administration was started at 6 weeks of age and a drug (10 mg/kg) was administered once a day for 14 days. After repeated administration, blood samples were obtained from tail vein. Rats were dissected under anesthesia with ethyl ether and eyes were isolated.
Retina was isolated from the eye of the rats mentioned 5B with stereoscopic microscope and sonicated. Retinol was extracted into n-hexane and samples were taken to dryness under nitrogen gas. Samples residues were resuspended into 2-propanol and analyzed by HPLC. Chromatographic separations were achieved on TSKgel ODS120T Column (4.6×250 mm) (Tosoh) using Alliance series reverse phase HPLC (Waters). The mobile phase contained acetonitrile/methanol (3/1) at 4° C. and detected at UV 325 nm. Retinol in retina was corrected by total protein detected by BCA protein assay (Pierce).

Zucker fatty rats = assay: Repeated drug administration test in Zucker fatty rats, plasma glucose and glycosylated hemoglobin; assay type: in vivo, Zucker fatty rats (fa/fa)
Experimental: The effect of the compound of the present invention on plasma levels of glucose and glycosylated hemoglobin were evaluated using the animal model shown below.
Male Zucker fatty rats (fa/fa) and their lean littermates (Fa/?) were bred in Takeda Pharmaceutical Company Limited and maintained on normal diet (CE2, CLAE Japan, Inc.) and tap water. Animals were housed in a temperature-controlled room adjusted to a 12-hour light/12-hour dark cycle beginning at 7:00 and 19:00, respectively. All procedures were conducted according to the experimental animal care use committee of Takeda Pharmaceutical Company Limited.
From 8 weeks of age, Zucker fatty rats were maintained on a high fat diet (D06110702, 20 kCal % fat) (LSG Corporation, Japan). A compound was suspended in 0.5% (w/v) methylcellulose in water and given orally to rats at a volume of 5 mL/kg of body weight. After 4 days of pre-administration of 0.5% (w/v) methylcellulose, rats were divided based on body weight, glycosylated hemoglobin, and plasma glucose (PG) (n=6 each). Drug administration was started at 15 weeks of age and a drug (10 mg/kg) was administered once a day for 28 days.
Before and 28 days after the administration, blood samples were obtained from tail vein with sodium heparin as an anticoagulant, followed by plasma separation by centrifugation. Plasma glucose (PG) levels were measured enzymatically by an Autoanalyzer 7180 (Hitachi, Japan). Glycosylated hemoglobin levels were analyzed by a high performance liquid chromatography-based method using an automated analyzer HLC-723 or HLC-723 G7 (Tosoh, Japan). The changes in glycosylated hemoglobin were calculated by subtracting the initial value from final value.

[1] = Zucker fatty rats, 10 mg/kg, 28 days repeated administration

| Compound | inhibition at 10 µM (human RBP4; at 10 μM compound, read-out: human RBP4 binding inhibitory activity(% at 10 μM)) [%] | RBP4 (% of initial/Control) 0 hr (RBP4) | RBP4 (% of initial/Control) 4 hr (RBP4) | RBP4 (% of initial/Control) 7 hr (RBP4) | RBP4 (% of initial/Control) 24 hr (RBP4) | effect on retinol in plasma and retina (in words) (CD (SD) rats; CD (SD) rats, 10 mg/kg, 14 days repeated administration) | Retinol in retina (CD (SD) rats; male CD (SD) rats, 10 mg/kg oral once a day for 14 days, corrected by total protein, mean±SD) [µg/mg] | Retinol in plasma (μg/mL) (CD (SD) rats; male CD (SD) rats, 10 mg/kg oral once a day for 14 days, mean±SD) | IC50 (human RBP4; retinol 50 nM, His-tagged human RBP4, biotinylated human TTR, read-out: human RBP4 binding inhibitory activity (IC50 nM)) [nM] | Glycosylated hemoglobin (%) (Zucker fatty rats; Zucker fatty rats on high fat diet, 10 mg/kg oral once a day for 28 days, change = final minus initial value, mean±SD) | PG (% of initial/Vehicle) (Zucker fatty rats; Zucker fatty rats on high fat diet, 10 mg/kg oral once a day for 28 days, plasma glucose, mean±SD) | effect on PG (in words) (Zucker fatty rats; [1]) | effect on glycosylated hemoglobin (in words) (Zucker fatty rats; [1]) |
| --- | --- | --- | --- | --- | --- | --- | --- | --- | --- | --- | --- | --- | --- |
| O=C(O)CCc1nc(-c2cc(C(F)(F)F)cc(C(F)(F)F)c2)co1 [Reference Example 26, 3-{4-[3,5-bis(trifluoromethyl)phenyl]-1,3-oxazol-2-yl}propanoic acid, reference compound] | 100 | 100 ± 22.9 % of initial/Control | 34.7 ± 13.7 % of initial/Control | 24.9 ± 10.6 % of initial/Control | 9.2 ± 6.1 % of initial/Control | decreased retinol in plasma and retina significantly | 0.06 ± 0.01 | Not detected |  |  |  |  |  |
| CC(C)(C)c1ccccc1N1CCN(C(=O)NCC(=O)O)CC1 [Example 6, N-{[4-(2-tert-Butylphenyl)piperazin-1-yl]carbonyl}glycine] |  | 100 ± 14.1 % of initial/Control | 36.2 ± 5.0 % of initial/Control | 27.4 ± 5.9 % of initial/Control | 104.5 ± 4.4 % of initial/Control |  |  |  | 540 | 0.95 ± 0.67 | 70.0 ± 19.7 % of initial/Vehicle | decreased PG significantly | tended to decrease glycosylated hemoglobin (not significant) |
